{"source": "patent US20230159510A1", "about": "“NOVEL PRMT5 INHIBITORS” (AMGEN INC., priority 2020, published 2023)", "key": {"HCT116 MTAP null cells": {"test_system": "HCT116 MTAP null cells", "test": "HCT116 proliferation assay, MTAP null cells (CellTiter-Glo, 6 days)", "assay_type": "cell-based", "conditions": "144 h, read-out: Protif_ HCT116-MTAP null IC50", "protocol": "(§1) HCT116 MTAP null and WT cells were seeded in 96-well tissue culture plates in RPMI 1640 media + 10% fetal bovine serum. Plates were incubated overnight at 37° C. and 5% CO2. Cells were then treated with a 8- or 9-point serial dilution of compound, using a top concentration of 1 or 10 µM, 1:3 serial dilution steps and, a DMSO-only control. Cells were incubated in the presence of drug for 6 days. Effects on cell viability were measured with the CellTiter-Glo® Luminescent Cell Viability Assay (Promega) per manufacturer’s recommendation. Assay plates were read on an EnVision™ Multilabel Reader using the Ultra-Sensitive luminescence module."}, "HCT116 WT cells": {"test_system": "HCT116 WT cells", "test": "HCT116 proliferation assay, WT cells (CellTiter-Glo, 6 days)", "assay_type": "cell-based", "conditions": "Homo sapiens, HCT-116, 144 h, read-out: Prolif_HCT116-WT IC50", "protocol": "as §1"}}, "note": "Like-named read-outs stand apart in the source and are kept apart here.", "data": [{"smiles": "Cc1cc2cc(C(=O)N(Cc3ccc(C(F)(F)F)cn3)Cc3ncc(Cl)cn3)ccc2nc1N", "note": "[Example 339, 2-amino-N-((5-chloro-2-pyrimidinyl)methyl)-3-methyl-N-((5-(trifluoromethyl)-2-pyridinyl)methyl)-6-quinolinecarboxamide]", "values": [{"measurement": "IC50", "setting": "HCT116 MTAP null cells; HCT116-MTAP null", "value": 405, "unit": "nM"}, {"measurement": "IC50", "setting": "HCT116 WT cells", "value": "> 10000", "unit": "nM"}]}, {"smiles": "[2H]C([2H])([2H])c1cc2cc(C(=O)N(Cc3ccc(C(F)(F)F)cn3)CC(C)C)ccc2nc1N", "note": "[Example 398, 2-amino-N-isobutyl-3-(methyl-d3)-N-((5-(trifluoromethyl)pyridin-2-yl)methyl)quinoline-6-carboxamide]", "values": [{"measurement": "IC50", "setting": "HCT116 MTAP null cells", "value": 247, "unit": "nM"}, {"measurement": "IC50", "setting": "HCT116 WT cells", "value": 4780, "unit": "nM"}]}, {"smiles": "[2H]C([2H])([2H])c1cc2cc(C(=O)N(Cc3ccc(C(F)(F)F)cn3)[C@H](C)c3ncccn3)ccc2nc1N", "note": "[Example 399, (R)-2-amino-3-(methyl-d3)-N-(1-(pyrimidin-2-yl)ethyl)-N-((5-(trifluoromethyl)pyridin-2-yl)methyl)quinoline-6-carboxamide]", "values": [{"measurement": "IC50", "setting": "HCT116 MTAP null cells", "value": 36, "unit": "nM"}, {"measurement": "IC50", "setting": "HCT116 WT cells", "value": 872, "unit": "nM"}]}, {"smiles": "Cc1cc2cc(C(=O)N(Cc3ccc(C(F)(F)F)cn3)[C@H](C)c3ncccn3)ccc2nc1N", "note": "[Example 503, 2-amino-3-methyl-N-((1R)-1-(2-pyrimidinyl)ethyl)-N-((5-(trifluoromethyl)-2-pyridinyl)methyl)-6-quinolinecarboxamide]", "values": [{"measurement": "IC50", "setting": "HCT116 MTAP null cells", "value": 26, "unit": "nM"}, {"measurement": "IC50", "setting": "HCT116 WT cells", "value": 680, "unit": "nM"}]}, {"smiles": "Cc1cc2cc(C(=O)N(Cc3ccc(N4CCCCC4)cc3)Cc3ccnc4[nH]ccc34)ccc2nc1N", "note": "[Example 563, 2-amino-3-methyl-N-[[4-(1-piperidyl)phenyl]methyl]-N-(1H-pyrrolo [2,3-b]pyridin-4-ylmethyl)quinoline-6-carboxamide]", "values": [{"measurement": "IC50", "setting": "HCT116 MTAP null cells; HCT116-MTAP null", "value": 165, "unit": "nM"}, {"measurement": "IC50", "setting": "HCT116 WT cells", "value": "> 1000", "unit": "nM"}]}, {"smiles": "Cc1cc2cc(C(=O)N(Cc3ccc(C(F)(F)F)cn3)Cc3csnn3)ccc2nc1N", "note": "[Example 564, 2-amino-3-methyl-N-(thiadiazol-4-ylmethyl)-N-[[5-(trifluoromethyl)-2-pyridyl]methyl] quinoline-6-carboxamide]", "values": [{"measurement": "IC50", "setting": "HCT116 MTAP null cells; HCT116-MTAP null", "value": 102, "unit": "nM"}, {"measurement": "IC50", "setting": "HCT116 WT cells", "value": "> 1000", "unit": "nM"}]}, {"smiles": "Cc1cc2cc(C(=O)N(Cc3ccc4c(c3)NC(=O)CO4)Cc3ccccc3F)ccc2nc1N", "note": "[Example 569, 2-amino-N-[(2-fluorophenyl)methyl]-3-methyl-N-[(3-oxo-4H-1,4-benzoxazin-6-yl)methyl] quinoline-6-carboxamide]", "values": [{"measurement": "IC50", "setting": "HCT116 MTAP null cells; HCT116-MTAP null", "value": 331, "unit": "nM"}, {"measurement": "IC50", "setting": "HCT116 WT cells", "value": 7160, "unit": "nM"}]}, {"smiles": "Cc1cc2cc(C(=O)N(Cc3ccc(N4CCC(C(N)=O)CC4)cc3)CC(C)C3CC3)ccc2nc1N", "note": "(centres unmarked) [Example 571, 2-amino-N-(4-(4-carbamoylpiperidin-1-yl)benzyl)-N-(2-cyclopropylpropyl)-3-methylquinoline-6-carboxamide]", "values": [{"measurement": "IC50", "setting": "HCT116 MTAP null cells; HCT116-MTAP null", "value": 202, "unit": "nM"}, {"measurement": "IC50", "setting": "HCT116 WT cells", "value": "> 1000", "unit": "nM"}]}, {"smiles": "Cc1cc2cc(C(=O)N(Cc3ccc(N4CCC(C(N)=O)CC4)cc3)Cc3ccnc4[nH]ccc34)ccc2nc1N", "note": "[Example 573, N-((1H-pyrrolo[2,3-b]pyridin-4-yl)methyl)-2-amino-N-(4-(4-carbamoylpiperidin-1-yl)benzyl)-3-methylquinoline-6-carboxamide]", "values": [{"measurement": "IC50", "setting": "HCT116 MTAP null cells; HCT116-MTAP null", "value": 760, "unit": "nM"}, {"measurement": "IC50", "setting": "HCT116 WT cells", "value": "> 1000", "unit": "nM"}]}, {"smiles": "Cc1cc2cc(C(=O)N(Cc3ccc(N4CCCCC4)cc3)CC3(C#N)CC3)ccc2nc1N", "note": "[Example 574, 2-amino-N-((1-cyanocyclopropyl)methyl)-3-methyl-N-(4-(piperidin-1-yl)benzyl)quinoline-6-carboxamide]", "values": [{"measurement": "IC50", "setting": "HCT116 MTAP null cells; HCT116-MTAP null", "value": 490, "unit": "nM"}, {"measurement": "IC50", "setting": "HCT116 WT cells", "value": "> 1000", "unit": "nM"}]}, {"smiles": "Cc1cc2cc(C(=O)N(Cc3ccc(C(F)(F)F)cn3)Cc3ncoc3C)ccc2nc1N", "note": "[Example 579, 2-amino-3-methyl-N-[(5-methyloxazol-4-yl)methyl]-N-[[5-(trifluoromethyl)-2-pyridyl]methyl]quinoline-6-carboxamide]", "values": [{"measurement": "IC50", "setting": "HCT116 MTAP null cells; HCT116-MTAP null", "value": 95, "unit": "nM"}, {"measurement": "IC50", "setting": "HCT116 WT cells", "value": "> 1000", "unit": "nM"}]}, {"smiles": "Cc1cc2cc(C(=O)N(Cc3ccc(C(F)(F)F)cn3)Cc3cc(Cl)cn3C)ccc2nc1N", "note": "[Example 582, 2-amino-N-((4-chloro-1-methyl-1H-pyrrol-2-yl)methyl)-3-methyl-N-((5-(trifluoromethyl)pyridin-2-yl)methyl)quinoline-6-carboxamide]", "values": [{"measurement": "IC50", "setting": "HCT116 MTAP null cells; HCT116-MTAP null", "value": 490, "unit": "nM"}, {"measurement": "IC50", "setting": "HCT116 WT cells", "value": "> 1000", "unit": "nM"}]}, {"smiles": "Cc1cc2cc(C(=O)N(Cc3cc[nH]c3)Cc3ccc(C(F)(F)F)cn3)ccc2nc1N", "note": "[Example 583, N-((1H-pyrrol-3-yl)methyl)-2-amino-3-methyl-N-((5-(trifluoromethyl)pyridin-2-yl)methyl)quinoline-6-carboxamide]", "values": [{"measurement": "IC50", "setting": "HCT116 MTAP null cells; HCT116-MTAP null", "value": 140, "unit": "nM"}, {"measurement": "IC50", "setting": "HCT116 WT cells", "value": "> 1000", "unit": "nM"}]}, {"smiles": "CCOC(C)CN(Cc1ccc(C(F)(F)F)cn1)C(=O)c1ccc2nc(N)c(C)cc2c1", "note": "(centres unmarked) [Example 584, 2-amino-N-(2-ethoxypropyl)-3-methyl-N-((5-(trifluoromethyl)pyridin-2-yl)methyl)quinoline-6-carboxamide]", "values": [{"measurement": "IC50", "setting": "HCT116 MTAP null cells; HCT116-MTAP null", "value": 290, "unit": "nM"}, {"measurement": "IC50", "setting": "HCT116 WT cells", "value": "> 1000", "unit": "nM"}]}, {"smiles": "Cc1cc2cc(C(=O)N(CCc3ccon3)Cc3ccc(C(F)(F)F)cn3)ccc2nc1N", "note": "[Example 585, 2-amino-N-(2-(isoxazol-3-yl)ethyl)-3-methyl-N-((5-(trifluoromethyl)pyridin-2-yl)methyl)quinoline-6-carboxamide]", "values": [{"measurement": "IC50", "setting": "HCT116 MTAP null cells; HCT116-MTAP null", "value": 580, "unit": "nM"}, {"measurement": "IC50", "setting": "HCT116 WT cells", "value": 11000, "unit": "nM"}]}, {"smiles": "CCc1csc(CN(Cc2ccc(C(F)(F)F)cn2)C(=O)c2ccc3nc(N)c(C)cc3c2)n1", "note": "[Example 586, 2-amino-N-((4-ethylthiazol-2-yl)methyl)-3-methyl-N-((5-(trifluoromethyl)pyridin-2-yl)methyl)quinoline-6-carboxamide]", "values": [{"measurement": "IC50", "setting": "HCT116 MTAP null cells; HCT116-MTAP null", "value": 344, "unit": "nM"}, {"measurement": "IC50", "setting": "HCT116 WT cells", "value": 5550, "unit": "nM"}]}, {"smiles": "Cc1cc2cc(C(=O)N(Cc3ccccc3F)C3CC(c4ccc(OC(F)(F)F)cc4)C3)ccc2nc1N", "note": "(centres unmarked) [Example 587, 2-amino-N-(2-fluorobenzyl)-3-methyl-N-(3-(4-(trifluoromethoxy)phenyl)cyclobutyl)quinoline-6-carboxamide]", "values": [{"measurement": "IC50", "setting": "HCT116 MTAP null cells; HCT116-MTAP null", "value": 807, "unit": "nM"}, {"measurement": "IC50", "setting": "HCT116 WT cells", "value": 404, "unit": "nM"}]}, {"smiles": "Cc1cc2cc(C(=O)N(Cc3ccc4[nH]c(=O)[nH]c4c3)Cc3ccncc3F)ccc2nc1N", "note": "[Example 588, 2-amino-N-((3-fluoropyridin-4-yl)methyl)-3-methyl-N-((2-oxo-2,3-dihydro-1H-benzo [d]imidazol-5-yl)methyl)quinoline-6-carboxamide]", "values": [{"measurement": "IC50", "setting": "HCT116 MTAP null cells; HCT116-MTAP null", "value": 760, "unit": "nM"}, {"measurement": "IC50", "setting": "HCT116 WT cells", "value": "> 1000", "unit": "nM"}]}, {"smiles": "Cc1cc2cc(C(=O)N(Cc3ccc4[nH]c(=O)[nH]c4c3)Cc3ccnc4[nH]ccc34)ccc2nc1N", "note": "[Example 589, N-((1H-pyrrolo[2,3-b]pyridin-4-yl)methyl)-2-amino-3-methyl-N-((2-oxo-2,3-dihydro-1H-benzo [d]imidazol-5-yl)methyl)quinoline-6-carboxamide]", "values": [{"measurement": "IC50", "setting": "HCT116 MTAP null cells; HCT116-MTAP null", "value": 549, "unit": "nM"}, {"measurement": "IC50", "setting": "HCT116 WT cells", "value": "> 1000", "unit": "nM"}]}, {"smiles": "Cc1cc2cc(C(=O)N(Cc3ccc(C(F)(F)F)cn3)CC(O)C(F)(F)F)ccc2nc1N", "note": "(centres unmarked) [Example 592, 2-amino-3-methyl-N-(3,3,3-trifluoro-2-hydroxypropyl)-N-((5-(trifluoromethyl)pyridin-2-yl)methyl)quinoline-6-carboxamide]", "values": [{"measurement": "IC50", "setting": "HCT116 MTAP null cells; HCT116-MTAP null", "value": 407, "unit": "nM"}, {"measurement": "IC50", "setting": "HCT116 WT cells", "value": "> 1000", "unit": "nM"}]}, {"smiles": "Cc1cc2cc(C(=O)N(Cc3ccc(C(F)(F)F)cn3)C(C)C3CCOCC3)ccc2nc1N", "note": "(centres unmarked) [Example 675, 2-amino-3-methyl-N-(1-tetrahydropyran-4-ylethyl)-N-[[5-(trifluoromethyl)-2-pyridyl]methyl] quinoline-6-carboxamide]", "values": [{"measurement": "IC50", "setting": "HCT116 MTAP null cells; HCT116-MTAP null", "value": 232, "unit": "nM"}, {"measurement": "IC50", "setting": "HCT116 WT cells", "value": "> 1000", "unit": "nM"}]}, {"smiles": "Cc1cc2cc(C(=O)N(Cc3ccccc3F)Cc3c[nH]c4cccnc34)ccc2nc1N", "note": "[Example 711, 2-amino-N-[(2-fluorophenyl)methy1] -3-methyl-N-(1H-pyrrolo[3,2-b]pyridin-3-ylmethyl)quinoline-6-carboxamide]", "values": [{"measurement": "IC50", "setting": "HCT116 MTAP null cells; HCT116-MTAP null", "value": 279, "unit": "nM"}, {"measurement": "IC50", "setting": "HCT116 WT cells", "value": 9780, "unit": "nM"}]}]}
